Measured values reported in patent publication US5924973A, “Method of treating a disease process in a luminal structure” (The Trustees of Columbia University in the City of New York, priority 1996, dated 1999).

Columns and labels:
[1] = Biodistribution of 99mTc-MAG3 and 188Re-MAG3 in a dual label study, tail vein injection; format: in vivo, rats; details: ± standard deviation
Description: Biodistribution Data for ^99m Tc-MAG3 and ^188 Re-MAG3 in a dual label study

[2] = Dual label excretion studies of 188Re-MAG3 and 99mTc-MAG3 in rats (urine, feces); format: in vivo; details: simultaneously injected in rats
Description: Comparison of the Excretion of ^188 Re-MAG3 with ^99 mTc-MAG3 in rats
Dual Label Excretion Studies of ^188 Re-MAG3 and ^99m Tc-MAG3 in Rats

O=C(O)C[N]1C(=O)C[N]2C(=O)C[N]3C(=O)C[S][99Tc-]132=[O] [^99m Tc-MAG3, reference compound]
Biodistribution Data for ^99m Tc-MAG3, blood ([1]; 2 h): 0.18 ± 0.02 % inj. dose/g tissue
Biodistribution Data for ^99m Tc-MAG3, blood ([1]; 6 h): 0.13 ± 0.00 % inj. dose/g tissue
Biodistribution Data for ^99m Tc-MAG3, blood ([1]; 24 h): 0.05 ± 0.00 % inj. dose/g tissue
Biodistribution Data for ^99m Tc-MAG3, bone ([1]; 2 h): 0.05 ± 0.02 % inj. dose/g tissue
Biodistribution Data for ^99m Tc-MAG3, bone ([1]; 6 h): 0.03 ± 0.03 % inj. dose/g tissue
Biodistribution Data for ^99m Tc-MAG3, bone ([1]; 24 h): 0.02 ± 0.01 % inj. dose/g tissue
Biodistribution Data for ^99m Tc-MAG3, contents of l.i. ([1]; 2 h): 0.72 ± 0.18 % inj. dose/g tissue
Biodistribution Data for ^99m Tc-MAG3, contents of l.i. ([1]; 6 h): 1.16 ± 0.23 % inj. dose/g tissue
Biodistribution Data for ^99m Tc-MAG3, contents of l.i. ([1]; 24 h): 0.05 ± 0.01 % inj. dose/g tissue
Biodistribution Data for ^99m Tc-MAG3, contents of s.i. ([1]; 2 h): 1.84 ± 2.27 % inj. dose/g tissue
Biodistribution Data for ^99m Tc-MAG3, contents of s.i. ([1]; 6 h): 0.08 ± 0.03 % inj. dose/g tissue
Biodistribution Data for ^99m Tc-MAG3, contents of s.i. ([1]; 24 h): 0.02 ± 0.01 % inj. dose/g tissue
Biodistribution Data for ^99m Tc-MAG3, heart ([1]; 2 h): 0.09 ± 0.02 % inj. dose/g tissue
Biodistribution Data for ^99m Tc-MAG3, heart ([1]; 6 h): 0.08 ± 0.01 % inj. dose/g tissue
Biodistribution Data for ^99m Tc-MAG3, heart ([1]; 24 h): 0.04 ± 0.00 % inj. dose/g tissue
Biodistribution Data for ^99m Tc-MAG3, kidneys ([1]; 2 h): 0.61 ± 0.11 % inj. dose/g tissue
Biodistribution Data for ^99m Tc-MAG3, kidneys ([1]; 6 h): 0.43 ± 0.09 % inj. dose/g tissue
Biodistribution Data for ^99m Tc-MAG3, kidneys ([1]; 24 h): 0.40 ± 0.11 % inj. dose/g tissue
Biodistribution Data for ^99m Tc-MAG3, large intestine ([1]; 2 h): 0.14 ± 0.02 % inj. dose/g tissue
Biodistribution Data for ^99m Tc-MAG3, large intestine ([1]; 6 h): 0.18 ± 0.00 % inj. dose/g tissue
Biodistribution Data for ^99m Tc-MAG3, large intestine ([1]; 24 h): 0.06 ± 0.00 % inj. dose/g tissue
Biodistribution Data for ^99m Tc-MAG3, liver ([1]; 2 h): 0.15 ± 0.02 % inj. dose/g tissue
Biodistribution Data for ^99m Tc-MAG3, liver ([1]; 6 h): 0.15 ± 0.00 % inj. dose/g tissue
Biodistribution Data for ^99m Tc-MAG3, liver ([1]; 24 h): 0.11 ± 0.01 % inj. dose/g tissue
Biodistribution Data for ^99m Tc-MAG3, lung ([1]; 2 h): 0.15 ± 0.04 % inj. dose/g tissue
Biodistribution Data for ^99m Tc-MAG3, lung ([1]; 6 h): 0.07 ± 0.02 % inj. dose/g tissue
Biodistribution Data for ^99m Tc-MAG3, lung ([1]; 24 h): 0.04 ± 0.03 % inj. dose/g tissue
Biodistribution Data for ^99m Tc-MAG3, small intestine ([1]; 2 h): 0.12 ± 0.04 % inj. dose/g tissue
Biodistribution Data for ^99m Tc-MAG3, small intestine ([1]; 6 h): 0.07 ± 0.01 % inj. dose/g tissue
Biodistribution Data for ^99m Tc-MAG3, small intestine ([1]; 24 h): 0.03 ± 0.00 % inj. dose/g tissue
Biodistribution Data for ^99m Tc-MAG3, spleen ([1]; 2 h): 0.06 ± 0.02 % inj. dose/g tissue
Biodistribution Data for ^99m Tc-MAG3, spleen ([1]; 6 h): 0.07 ± 0.01 % inj. dose/g tissue
Biodistribution Data for ^99m Tc-MAG3, spleen ([1]; 24 h): 0.06 ± 0.00 % inj. dose/g tissue
Biodistribution Data for ^99m Tc-MAG3, thyroid ([1]; 2 h): 2.41 ± 0.95 % inj. dose/g tissue
Biodistribution Data for ^99m Tc-MAG3, thyroid ([1]; 6 h): 2.43 ± 0.24 % inj. dose/g tissue
Biodistribution Data for ^99m Tc-MAG3, thyroid ([1]; 24 h): 0.76 ± 0.59 % inj. dose/g tissue
distribution and elimination, 99mTc-MAG3 versus 188Re-MAG3 [2]: identical
